From patent US20230391748A1, “BICYCLIC INHIBITORS OF IRAK” (priority 2022, published 2023)

What was measured:
IL23p19 in THP-1 Cells = experiment: LPS Induced IL23p19 in THP-1 Cells (with IFNγ Primed) Assay; format: cell-based; settings: Homo sapiens, THP-1, 18 h, read-out: IL23 (THP, LPS) (IC50, μM)
How it was run: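 THP-1 cells (50K/well) primed with IFNγ (50 ng/mL) about 18 h, then given compound and stimulated with LPS for 18 h at 37 °C. Secreted IL-23p19 measured by sandwich ELISA with chemiluminescent read-out, giving EC50. Cell Titer Glo used on the remaining cells for toxicity.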

TNF-α in human PBMCs = experiment: R848-induced TNF-α in human PBMCs Assay; format: cell-based; settings: Homo sapiens, PBMC, 4 h, read-out: TNFα (PBMC, R848) (IC50, μM)
How it was run: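 Human PBMCs at 200K/well were pretreated with compound, then R848-stimulated for 4 h at 37 °C, 5% CO2. Supernatant TNF-α quantified by chemiluminescent ELISA; EC50 from curve fitting.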

[1] = tested on: TNF-α in Human Primary Monocyte-Derived Dendritic Cells; experiment: Gardiquimod-Induced TNF-α in Human Primary Monocyte-Derived Dendritic Cells; format: cell-based; settings: Dendritic cell, IFNγ-primed monocyte-derived dendritic cells, 4 μg/ml Gardiquimod, 6 hours, TNF-α ELISA, read-out: TNFα (DC, GARD) (IC50)
How it was run: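 Monocytes differentiated 7 days with GM-CSF and IL-4, then primed 24 h with 50 ng/ml IFN-γ. Compound added 1 h before 6 h stimulation with 4 μg/ml Gardiquimod, 0.5% DMSO final. Supernatant TNF-α measured by chemiluminescent ELISA; EC50 from curve fitting.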

IRAK4 = IRAK4 (Homo sapiens (Human), UniProt Q9NWZ3); experiment: IRAK4 ADP-Glo Assay; format: biochemical; settings: MBP substrate
How it was run: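 Human IRAK4 kinase reaction with MBP substrate plus ATP in Tris-HCl/MgCl2/BSA/DTT buffer, pH 7.4, run 60 min at room temperature or 30 min at 30 °C. ADP formed was measured by ADP-Glo luminescence after ATP depletion (40 min) and detection reagent (30 min).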

Sequence of IRAK4 (Q9NWZ3 whole entry): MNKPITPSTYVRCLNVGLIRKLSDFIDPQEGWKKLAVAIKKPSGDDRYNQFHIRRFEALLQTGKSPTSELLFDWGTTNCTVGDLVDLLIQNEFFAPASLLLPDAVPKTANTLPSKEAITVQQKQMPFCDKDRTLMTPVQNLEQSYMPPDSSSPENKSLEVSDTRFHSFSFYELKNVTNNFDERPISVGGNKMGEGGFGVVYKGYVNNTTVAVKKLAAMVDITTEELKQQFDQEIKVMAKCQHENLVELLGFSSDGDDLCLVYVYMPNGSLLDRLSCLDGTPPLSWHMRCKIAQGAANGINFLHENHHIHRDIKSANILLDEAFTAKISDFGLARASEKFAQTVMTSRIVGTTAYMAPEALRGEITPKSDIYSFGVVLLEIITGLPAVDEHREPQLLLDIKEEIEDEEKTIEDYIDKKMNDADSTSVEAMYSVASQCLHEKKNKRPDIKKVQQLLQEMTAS

| Structure (SMILES) | IC50 (IL23p19 in THP-1 Cells) [µM] | IC50 (TNF-α in human PBMCs) [µM] | IC50 [1] [nM] | IC50 (IRAK4) [nM] |
| --- | --- | --- | --- | --- |
| CC(C)Oc1cc2c(O[C@@H]3CCCN(C(=O)CC#N)C3)ncc(C#CC3CNC3)c2cc1C(N)=O [Compound I-103, (R)-4-(azetidin-3-ylethynyl)-1-((1-(2-cyanoacetyl)piperidin-3-yl)oxy)-7-isopropoxyisoquinoline-6-carboxamide] | 9.35 | 0.441 | 828 | 5.2 |
| CC(C)Oc1cc2c(O[C@@H]3CCCN(C(=O)CC#N)C3)ncc(C#C[C@H]3CC[C@](C)(O)CC3)c2cc1C(N)=O [Compound I-100, 1-(((R)-1-(2-cyanoacetyl)piperidin-3-yl)oxy)-4-(((1r,4R)-4-hydroxy-4-methylcyclohexyl)ethynyl)-7-isopropoxyisoquinoline-6-carboxamide] | 0.96 | 3.3 | 1410 | 34.8 |
| CC(C)Oc1cc2c(OC[C@@H]3CCC(=O)N3)ncc(C#CC3CNC3)c2cc1C(N)=O [Compound I-25, (S)-4-(azetidin-3-ylethynyl)-7-isopropoxy-1-((5-oxopyrrolidin-2-yl)methoxy)isoquinoline-6-carboxamide] | 12.7 | 2.36 | 1350 | 3.3 |
| COC1(OC)CC(C#Cc2cnc(OC[C@@H]3CCC(=O)N3)c3cc(OC(C)C)c(C(N)=O)cc23)C1 [Compound I-30, (S)-4-((3,3-dimethoxycyclobutyl)ethynyl)-7-isopropoxy-1-((5-oxopyrrolidin-2-yl)methoxy)isoquinoline-6-carboxamide] | 0.142 | 0.0947 | 71 | 6.4 |
| CC(C)Oc1cc2c(O[C@@H]3CCCN(C(=O)CC#N)C3)ncc(-c3cnn(C4CC4)c3)c2cc1C(N)=O [Compound I-114, (R)-1-((1-(2-cyanoacetyl)piperidin-3-yl)oxy)-4-(1-cyclopropyl-1H-pyrazol-4-yl)-7-isopropoxyisoquinoline-6-carboxamide] | 1.42 | 0.549 | 659 | 12.3 |
| CC(C)Oc1cc2c(O[C@@H]3CCCN(C(=O)CC#N)C3)ncc(-c3cnn(C4CCOCC4)c3)c2cc1C(N)=O [Compound I-117, (R)-1-((1-(2-cyanoacetyl)piperidin-3-yl)oxy)-7-isopropoxy-4-(1-(tetrahydro-2H-pyran-4-yl)-1H-pyrazol-4-yl)isoquinoline-6-carboxamide] | 3.91 | 7.24 | 1030 | 25.3 |
| CC(C)Oc1cc2c(OC[C@@H]3CC(F)(F)C(=O)N3)ncc(-c3cnn(C4CCOCC4)c3)c2cc1C(N)=O [Compound I-70, (S)-1-((4,4-difluoro-5-oxopyrrolidin-2-yl)methoxy)-7-isopropoxy-4-(1-(tetrahydro-2H-pyran-4-yl)-1H-pyrazol-4-yl)isoquinoline-6-carboxamide] | 2.26 | 0.292 | 82.7 | 6.8 |
| CC(C)Oc1cc2c(OC[C@@H]3CCC(=O)N3)ncc(C#C[C@H]3C[C@@H](N(C)C)C3)c2cc1C(N)=O [Compound I-31, 4-((cis-3-(dimethylamino)cyclobutyl)ethynyl)-7-isopropoxy-1-(((S)-5-oxopyrrolidin-2-yl)methoxy)isoquinoline-6-carboxamide] | 0.136 | 0.0637 | 89.8 | 3.5 |
| CC(C)Oc1cc2c(O[C@@H]3CCCN(C(=O)CC#N)C3)ncc(C#CC3(O)CCN(C(=O)OC(C)(C)C)CC3)c2cc1C(N)=O [Compound I-92, tert-butyl (R)-4-((6-carbamoyl-1-((1-(2-cyanoacetyl)piperidin-3-yl)oxy)-7-isopropoxyisoquinolin-4-yl)ethynyl)-4-hydroxypiperidine-1-carboxylate] | 4.92 | 3.7 | 13900 | 142 |
| CC(C)Oc1cc2c(OC[C@@H]3CCC(=O)N3)ncc(C#CC(C)(C)CO)c2cc1C(N)=O [Compound I-5, (S)-4-(4-hydroxy-3,3-dimethylbut-1-yn-1-yl)-7-isopropoxy-1-((5-oxopyrrolidin-2-yl)methoxy)isoquinoline-6-carboxamide] | 6.51 | 0.433 | 488 | 120 |
| CC(C)Oc1cc2c(OC[C@@H]3CCC(=O)N3)ncc(C#CC3(O)CCCC3)c2cc1C(N)=O [Compound I-9, (S)-4-((1-hydroxycyclopentyl)ethynyl)-7-isopropoxy-1-((5-oxopyrrolidin-2-yl)methoxy)isoquinoline-6-carboxamide] | 0.394 | 0.319 | 210 | 9.9 |
| CC(C)Oc1cc2c(OC[C@@H]3CCC(=O)N3)ncc(-c3cnn(CCN4CCOCC4)c3)c2cc1C(N)=O [Compound I-38, (S)-7-isopropoxy-4-(1-(2-morpholinoethyl)-1H-pyrazol-4-yl)-1-((5-oxopyrrolidin-2-yl)methoxy)isoquinoline-6-carboxamide] | 3.41 | 1.49 | 4030 | 21 |
| CC(C)Oc1cc2c(OC[C@@H]3CCC(=O)N3)ncc(C#CC3CN(C(=O)OC(C)(C)C)C3)c2cc1C(N)=O [Compound I-24, tert-butyl (S)-3-((6-carbamoyl-7-isopropoxy-1-((5-oxopyrrolidin-2-yl)methoxy)isoquinolin-4-yl)ethynyl)azetidine-1-carboxylate] | 0.125 | 0.0763 | 22.4 | 8.1 |
| CC(C)Oc1cc2c(OC[C@@H]3CCC(=O)N3)ncc(C#C[C@H]3CC[C@](C)(O)CC3)c2cc1C(N)=O [Compound I-22, 4-(((1r,4S)-4-hydroxy-4-methylcyclohexyl)ethynyl)-7-isopropoxy-1-(((S)-5-oxopyrrolidin-2-yl)methoxy)isoquinoline-6-carboxamide] | 0.208 | 0.049 | 72.9 | 12.3 |
| CC(C)Oc1cc2c(O[C@@H]3CCCN(C(=O)CC#N)C3)ncc(C#C[C@H]3CC[C@@](C)(O)CC3)c2cc1C(N)=O [Compound I-101, 1-(((R)-1-(2-cyanoacetyl)piperidin-3-yl)oxy)-4-(((1s,4S)-4-hydroxy-4-methylcyclohexyl)ethynyl)-7-isopropoxyisoquinoline-6-carboxamide] | 0.27 | 3.33 | 750 | 13.7 |
| CC(C)Oc1cc2c(OC[C@@H]3CCC(=O)N3)ncc(C#CC(C)(C)O)c2cc1C(N)=O [Compound I-3, (S)-4-(3-hydroxy-3-methylbut-1-yn-1-yl)-7-isopropoxy-1-((5-oxopyrrolidin-2-yl)methoxy)isoquinoline-6-carboxamide] | 0.879 | 0.36 | 411 | 12.5 |
| CC(C)Oc1cc2c(OC[C@@H]3CC(F)(F)C(=O)N3)ncc(C#CC3(O)CCNCC3)c2cc1C(N)=O [Compound I-53, (S)-1-((4,4-difluoro-5-oxopyrrolidin-2-yl)methoxy)-4-((4-hydroxypiperidin-4-yl)ethynyl)-7-isopropoxyisoquinoline-6-carboxamide] | 11 | 3.06 | 14200 | 6.3 |
| CC(C)Oc1cc2c(OC[C@@H]3CCC(=O)N3)ncc(C#CC3(O)CCNCC3)c2cc1C(N)=O [Compound I-13, (S)-4-((4-hydroxypiperidin-4-yl)ethynyl)-7-isopropoxy-1-((5-oxopyrrolidin-2-yl)methoxy)isoquinoline-6-carboxamide] | 4.64 | 4.67 | 3500 | 14.9 |
| CC(C)Oc1cc2c(OC[C@@H]3CCC(=O)N3)ncc(C#CC3CN(C(C)C)C3)c2cc1C(N)=O [Compound I-27, (S)-7-isopropoxy-4-((1-isopropylazetidin-3-yl)ethynyl)-1-((5-oxopyrrolidin-2-yl)methoxy)isoquinoline-6-carboxamide] | 0.634 | 0.176 | 514 | 5.6 |
| CC(C)Oc1cc2c(O[C@@H]3CCCN(C(=O)CC#N)C3)ncc(C#CC3CCOCC3)c2cc1C(N)=O [Compound I-89, (R)-1-((1-(2-cyanoacetyl)piperidin-3-yl)oxy)-7-isopropoxy-4-((tetrahydro-2H-pyran-4-yl)ethynyl)isoquinoline-6-carboxamide] | 1.71 | 0.556 | 530 | 15.2 |
| CC(C)Oc1cc2c(OC[C@@H]3CCC(=O)N3)ncc(-c3cnn(C4CCCC4)c3)c2cc1C(N)=O [Compound I-34, (S)-4-(1-cyclopentyl-1H-pyrazol-4-yl)-7-isopropoxy-1-((5-oxopyrrolidin-2-yl)methoxy)isoquinoline-6-carboxamide] | 1.3 | 0.295 | 470 | 7.7 |
